For two compounds, IC50 results are on record in PMC12515225, “Targeting neuroblastoma with hydroxamic acid based HDAC1 and HDAC2 inhibitors: Insights from in vitro and in vivo studies” (Investigational New Drugs, 2025).

In one assay the target is HDAC1 (Homo sapiens, UniProt Q13547). The experiment in a line: fluorogenic HDAC activity assay with HDAC1 protein (BPS […]), Boc-Lys(Ac)-AMC substrate. The assay is classed as biochemical.
In the next assay the target is HDAC2 (Homo sapiens, UniProt Q92769). As to the kind of experiment: fluorogenic HDAC activity assay with HDAC2 protein (BPS […]), Boc-Lys(Ac)-AMC substrate. It is filed as biochemical.
Chain of HDAC2 (Q92769 whole entry): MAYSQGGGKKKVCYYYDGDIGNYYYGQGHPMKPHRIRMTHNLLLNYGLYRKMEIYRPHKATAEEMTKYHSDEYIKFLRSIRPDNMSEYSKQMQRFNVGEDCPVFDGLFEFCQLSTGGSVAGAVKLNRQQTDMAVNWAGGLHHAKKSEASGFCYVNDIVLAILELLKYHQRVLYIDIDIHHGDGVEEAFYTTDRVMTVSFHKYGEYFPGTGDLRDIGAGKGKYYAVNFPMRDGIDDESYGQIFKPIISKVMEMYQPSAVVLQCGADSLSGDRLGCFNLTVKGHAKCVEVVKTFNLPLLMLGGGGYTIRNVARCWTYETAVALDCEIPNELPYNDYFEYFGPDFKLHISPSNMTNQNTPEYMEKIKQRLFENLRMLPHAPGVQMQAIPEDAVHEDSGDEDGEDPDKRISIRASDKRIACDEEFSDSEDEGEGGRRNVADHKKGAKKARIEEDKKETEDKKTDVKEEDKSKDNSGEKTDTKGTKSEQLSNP

Chain of HDAC1 (Q13547 whole entry): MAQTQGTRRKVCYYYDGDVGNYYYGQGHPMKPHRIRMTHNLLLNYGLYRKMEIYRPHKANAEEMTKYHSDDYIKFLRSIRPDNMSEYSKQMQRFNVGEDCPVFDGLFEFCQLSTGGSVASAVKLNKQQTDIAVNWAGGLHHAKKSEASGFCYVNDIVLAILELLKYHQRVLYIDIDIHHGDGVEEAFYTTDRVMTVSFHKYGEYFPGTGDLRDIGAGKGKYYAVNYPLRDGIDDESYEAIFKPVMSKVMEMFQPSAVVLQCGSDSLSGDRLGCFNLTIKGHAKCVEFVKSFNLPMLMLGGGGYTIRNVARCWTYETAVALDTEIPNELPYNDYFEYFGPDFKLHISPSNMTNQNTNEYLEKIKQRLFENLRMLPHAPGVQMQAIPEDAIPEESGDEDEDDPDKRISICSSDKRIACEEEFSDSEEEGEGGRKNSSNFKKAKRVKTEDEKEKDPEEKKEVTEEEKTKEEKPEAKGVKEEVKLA

As for `O=C(CCCCCCC(=O)Nc1cccc(-c2ccccn2)n1)NO` [3B, N^1-([2,2'-bipyridin]-6-yl)-N^8-hydroxyoctanediamide], the IC50 – broadly, the concentration that gives 50% inhibition – was determined as 0.44 µM against HDAC1 and 1.94 µM against HDAC2.

Consider `O=C(NO)c1cccc(-c2ccccn2)n1` [3A, N-hydroxy[2,2'-bipyridine]-6-carboxamide], for which it took 0.89 µM to reach half-maximal inhibition at HDAC2 (IC50).
